Data as given in patent US20170166598A1, “HETEROARYL COMPOUNDS FOR KINASE INHIBITION” (ARIAD PHARMACEUTICALS, INC., priority 2014, published 2017).

Legend:
Type in all cases: cell-based
[1] = biological target: T1, human EGFR exon 20 insertion NPG (H773_V774insNPG) (Homo sapiens, UniProt P00533, INS772GNP); assay: Ba/F3-EGFR-Exon20-NPG cell anti-proliferative assay (CellTiter 96 MTS, 72 h); settings: Ba/F3-EGFR-Exon20-NPG cells
T1 construct: expressed in transfected cells; host or cells: Ba/F3 (murine pro-B) cells transduced with lentivirus from pLVX-IRES puro
T1 sequence (P00533 with tags, fused parts or gaps INS772GNP): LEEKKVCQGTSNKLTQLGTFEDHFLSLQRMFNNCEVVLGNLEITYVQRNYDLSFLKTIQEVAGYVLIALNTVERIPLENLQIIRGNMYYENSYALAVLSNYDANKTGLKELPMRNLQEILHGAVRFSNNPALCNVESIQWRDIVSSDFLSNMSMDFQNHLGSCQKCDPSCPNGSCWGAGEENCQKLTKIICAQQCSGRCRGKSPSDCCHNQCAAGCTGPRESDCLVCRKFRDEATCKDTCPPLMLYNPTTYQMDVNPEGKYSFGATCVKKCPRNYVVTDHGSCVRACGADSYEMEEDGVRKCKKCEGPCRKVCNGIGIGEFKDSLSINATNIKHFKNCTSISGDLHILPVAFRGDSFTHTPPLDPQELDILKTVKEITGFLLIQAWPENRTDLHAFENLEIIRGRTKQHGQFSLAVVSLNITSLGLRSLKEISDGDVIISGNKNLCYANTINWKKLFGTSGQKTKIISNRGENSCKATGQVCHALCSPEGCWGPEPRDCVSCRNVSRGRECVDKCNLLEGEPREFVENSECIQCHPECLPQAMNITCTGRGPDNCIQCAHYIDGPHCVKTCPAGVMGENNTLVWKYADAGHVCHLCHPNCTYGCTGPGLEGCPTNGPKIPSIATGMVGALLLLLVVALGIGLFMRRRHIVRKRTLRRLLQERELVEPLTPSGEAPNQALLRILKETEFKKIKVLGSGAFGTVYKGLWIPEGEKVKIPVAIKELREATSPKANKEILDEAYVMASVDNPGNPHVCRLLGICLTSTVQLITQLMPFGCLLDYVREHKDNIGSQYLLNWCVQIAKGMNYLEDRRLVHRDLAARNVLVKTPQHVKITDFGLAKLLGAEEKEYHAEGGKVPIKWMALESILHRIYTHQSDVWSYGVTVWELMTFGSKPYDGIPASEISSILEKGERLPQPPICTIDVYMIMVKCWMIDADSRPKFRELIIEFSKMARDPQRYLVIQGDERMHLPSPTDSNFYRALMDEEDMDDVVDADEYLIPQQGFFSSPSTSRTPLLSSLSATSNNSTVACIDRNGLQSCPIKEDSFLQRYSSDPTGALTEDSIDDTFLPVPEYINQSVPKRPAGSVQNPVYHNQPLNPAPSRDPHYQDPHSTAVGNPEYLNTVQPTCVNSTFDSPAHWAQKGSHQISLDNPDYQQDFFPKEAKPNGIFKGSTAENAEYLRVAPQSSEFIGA
Procedure: (§1) An expression vector, pLVX-IRES puro (Clontech) coding for human EGFR exon 20 insertions NPG (H773_V774insNPG) or ASV (V769_D770insASV), was transfected into HEK293 cells by the Trans-Lentiviral ORF Packaging System (Thermo Scientific), to produce virus encoding EGFR exon 20 insertions. Ba/F3 (DSMZ) cells maintained in RPMI 1640 medium supplemented with 10% fetal bovine serum, 200 μM L-glutamine/l 200 μg/mL penicillin/200 μg/mL streptomycin (Life Technology) and 10 ng/mL IL-3 (R&D system), were infected by EGFR Exon20 virus and subsequently selected by puromycin (Life Technology) selection and IL-3 depletion. […] The anti-proliferative activity of compounds were determined as follows: BaF3-EGFR-Exon20 cells (NPG or ASV) seeded in 96 well plates (2500 cells/well) were treated with test compound (dissolved in DMSO) at a series of concentrations (4-fold dilution, top concentration: 10,000 nM). The plates were incubated for 72 h in a 37° C. incubator with 5% CO2, and the number of viable cells in each well were measured indirectly by CellTiter 96® Aqueous One Solution Cell Proliferation Assay (Promega) This assay is a colorimetric method for determining the number of viable cells through measurement of their metabolic activity by detection of enzymatic conversion of tetrazolium salts into blue formazan derivatives. Reagent (20 μL) was added into each well, and the plates were returned to the incubator for 2 h. The absorbance in each well was then measured at 490 nm using an Envision plate reader (Perkin Elmer).

[2] = biological target: T2, human EGFR exon 20 insertion ASV (V769_D770insASV) (Homo sapiens, UniProt P00533, INS769ASV); assay: Ba/F3-EGFR-Exon20-ASV cell anti-proliferative assay (CellTiter 96 MTS, 72 h); settings: Ba/F3-EGFR-Exon20-ASV cells
T2 construct: expressed in transfected cells; host or cells: Ba/F3 (murine pro-B) cells transduced with lentivirus from pLVX-IRES puro
T2 sequence (P00533 with tags, fused parts or gaps INS769ASV): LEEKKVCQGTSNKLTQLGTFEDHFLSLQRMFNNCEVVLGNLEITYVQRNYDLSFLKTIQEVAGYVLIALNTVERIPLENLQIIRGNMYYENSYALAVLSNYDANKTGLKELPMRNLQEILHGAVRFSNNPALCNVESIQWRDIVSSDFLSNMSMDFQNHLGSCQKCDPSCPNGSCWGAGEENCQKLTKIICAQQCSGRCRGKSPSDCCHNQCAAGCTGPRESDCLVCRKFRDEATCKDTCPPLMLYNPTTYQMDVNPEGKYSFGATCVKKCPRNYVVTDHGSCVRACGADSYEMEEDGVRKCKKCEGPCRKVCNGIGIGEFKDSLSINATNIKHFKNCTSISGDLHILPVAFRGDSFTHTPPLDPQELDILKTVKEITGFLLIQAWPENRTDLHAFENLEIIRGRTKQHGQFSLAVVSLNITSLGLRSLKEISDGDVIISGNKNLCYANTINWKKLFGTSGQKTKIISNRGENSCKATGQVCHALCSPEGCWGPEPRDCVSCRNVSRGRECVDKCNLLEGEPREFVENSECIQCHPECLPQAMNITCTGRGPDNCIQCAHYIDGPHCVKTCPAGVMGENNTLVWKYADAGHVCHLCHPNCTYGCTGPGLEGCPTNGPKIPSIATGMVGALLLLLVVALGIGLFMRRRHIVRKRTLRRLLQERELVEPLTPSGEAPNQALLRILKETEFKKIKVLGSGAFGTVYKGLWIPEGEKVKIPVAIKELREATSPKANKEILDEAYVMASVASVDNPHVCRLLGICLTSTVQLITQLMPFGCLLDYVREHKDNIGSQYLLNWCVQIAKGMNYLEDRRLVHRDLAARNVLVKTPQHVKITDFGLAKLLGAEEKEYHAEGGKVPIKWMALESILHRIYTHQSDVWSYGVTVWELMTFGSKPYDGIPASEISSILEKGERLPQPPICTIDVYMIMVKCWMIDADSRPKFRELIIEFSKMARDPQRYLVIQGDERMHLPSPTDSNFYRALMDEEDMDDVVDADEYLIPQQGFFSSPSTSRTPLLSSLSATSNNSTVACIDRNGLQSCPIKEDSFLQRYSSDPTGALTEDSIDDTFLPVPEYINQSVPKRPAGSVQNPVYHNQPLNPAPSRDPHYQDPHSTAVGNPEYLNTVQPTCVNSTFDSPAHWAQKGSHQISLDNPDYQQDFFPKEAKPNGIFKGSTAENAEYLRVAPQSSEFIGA
Procedure: as §1

[3] = biological target: T3, human EGFR E746-A750 deletion and T790M Mutation (Homo sapiens, UniProt P00533, DEL746-750/T790M); assay: Ba/F3-EGFR-Del/T790M cell anti-proliferative assay (CellTiter 96 MTS, 72 h); settings: Ba/F3-EGFR-Del/T790M cells
T3 construct: expressed in transfected cells; host or cells: Ba/F3 (murine pro-B) cells transduced with lentivirus from pLVX-IRES puro
T3 sequence (P00533 with tags, fused parts or gaps DEL746-750/T790M): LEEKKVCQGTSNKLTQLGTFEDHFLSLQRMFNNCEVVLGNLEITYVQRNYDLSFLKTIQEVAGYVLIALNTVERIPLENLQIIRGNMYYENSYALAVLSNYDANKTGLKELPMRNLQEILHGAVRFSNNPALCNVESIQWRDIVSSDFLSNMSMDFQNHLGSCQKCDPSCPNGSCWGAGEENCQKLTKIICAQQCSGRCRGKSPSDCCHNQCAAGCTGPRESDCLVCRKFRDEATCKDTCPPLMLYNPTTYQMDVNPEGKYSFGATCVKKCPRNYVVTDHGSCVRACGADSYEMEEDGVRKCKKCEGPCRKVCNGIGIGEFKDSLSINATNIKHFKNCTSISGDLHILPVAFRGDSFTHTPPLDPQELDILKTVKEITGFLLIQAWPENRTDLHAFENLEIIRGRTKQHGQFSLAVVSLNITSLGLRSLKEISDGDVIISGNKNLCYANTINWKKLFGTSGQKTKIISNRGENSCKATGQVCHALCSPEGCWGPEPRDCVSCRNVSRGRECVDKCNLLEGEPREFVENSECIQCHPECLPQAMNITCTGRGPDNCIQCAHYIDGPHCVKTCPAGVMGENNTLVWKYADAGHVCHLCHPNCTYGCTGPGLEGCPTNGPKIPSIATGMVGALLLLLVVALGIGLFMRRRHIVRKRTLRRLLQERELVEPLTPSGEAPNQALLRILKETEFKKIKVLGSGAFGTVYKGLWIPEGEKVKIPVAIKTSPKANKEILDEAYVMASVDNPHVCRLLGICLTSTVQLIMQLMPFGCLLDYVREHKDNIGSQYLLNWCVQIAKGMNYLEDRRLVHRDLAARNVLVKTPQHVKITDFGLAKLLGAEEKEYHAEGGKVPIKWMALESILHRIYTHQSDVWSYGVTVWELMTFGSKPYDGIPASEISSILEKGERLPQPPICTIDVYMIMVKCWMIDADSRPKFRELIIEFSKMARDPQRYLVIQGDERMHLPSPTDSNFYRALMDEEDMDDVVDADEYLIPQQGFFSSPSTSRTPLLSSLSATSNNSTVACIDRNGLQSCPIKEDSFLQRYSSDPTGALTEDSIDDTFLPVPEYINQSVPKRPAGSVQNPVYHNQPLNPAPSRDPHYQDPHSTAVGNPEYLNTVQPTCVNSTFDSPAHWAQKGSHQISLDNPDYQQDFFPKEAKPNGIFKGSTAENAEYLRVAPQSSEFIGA
Procedure: An expression vector, pLVX-IRES puro (Clontech) coding for human EGFR E746-A750 deletion and T790M Mutation, was transfected into HEK293 cells by the Trans-Lentiviral ORF Packaging System (Thermo Scientific), to produce virus encoding EGFR exon 19 deletion and T790M mutations. Ba/F3 (DSMZ) cells maintained in RPMI 1640 medium supplemented with 10% fetal bovine serum, 200 μM L-glutamine/200 μg/mL penicillin/200 μg/mL streptomycin (Life Technology) and 10 ng/mL IL-3 (R&D system), were infected by EGFR E746-A750 deletion and T790M Mutation virus and subsequently selected by puromycin (Life Technology) selection and IL-3 depletion. […] The anti-proliferative activity of compounds was determined as follows: BaF3-EGFR-Del/T790M cells seeded in 96 well plates (2500 cells/well) were treated with test compound (dissolved in DMSO) at a series of concentrations (4-fold dilution, top concentration: 10,000 nM). The plates were incubated for 72 h in a 37° C. incubator with 5% CO2, and the number of viable cells in each well were measured indirectly by CellTiter 96® Aqueous One Solution Cell Proliferation Assay (Promega; this assay is a colorimetric method for determining the number of viable cells through measurement of their metabolic activity by detection of enzymatic conversion of tetrazolium salts into blue formazan derivatives). Reagent (20 μL) was added into each well, and the plates were returned to the incubator for 2 h. The absorbance in each well was then measured at 490 nm using an Envision plate reader (Perkin Elmer).

[4] = biological target: T4, Her2 exon 20 YVMA insertion (A775_G776ins YVMA) (Homo sapiens, UniProt P04626, INS775YVMA); assay: Ba/F3-Her2 Exon20 YVMA cell anti-proliferative assay (CellTiter 96 MTS, 72 h); settings: Ba/F3-Her2 Exon20 YVMA cells
T4 construct: expressed in transfected cells; host or cells: Ba/F3 (murine pro-B) cells transduced with lentivirus from pLVX-IRES puro
T4 sequence (P04626 with tags, fused parts or gaps INS775YVMA): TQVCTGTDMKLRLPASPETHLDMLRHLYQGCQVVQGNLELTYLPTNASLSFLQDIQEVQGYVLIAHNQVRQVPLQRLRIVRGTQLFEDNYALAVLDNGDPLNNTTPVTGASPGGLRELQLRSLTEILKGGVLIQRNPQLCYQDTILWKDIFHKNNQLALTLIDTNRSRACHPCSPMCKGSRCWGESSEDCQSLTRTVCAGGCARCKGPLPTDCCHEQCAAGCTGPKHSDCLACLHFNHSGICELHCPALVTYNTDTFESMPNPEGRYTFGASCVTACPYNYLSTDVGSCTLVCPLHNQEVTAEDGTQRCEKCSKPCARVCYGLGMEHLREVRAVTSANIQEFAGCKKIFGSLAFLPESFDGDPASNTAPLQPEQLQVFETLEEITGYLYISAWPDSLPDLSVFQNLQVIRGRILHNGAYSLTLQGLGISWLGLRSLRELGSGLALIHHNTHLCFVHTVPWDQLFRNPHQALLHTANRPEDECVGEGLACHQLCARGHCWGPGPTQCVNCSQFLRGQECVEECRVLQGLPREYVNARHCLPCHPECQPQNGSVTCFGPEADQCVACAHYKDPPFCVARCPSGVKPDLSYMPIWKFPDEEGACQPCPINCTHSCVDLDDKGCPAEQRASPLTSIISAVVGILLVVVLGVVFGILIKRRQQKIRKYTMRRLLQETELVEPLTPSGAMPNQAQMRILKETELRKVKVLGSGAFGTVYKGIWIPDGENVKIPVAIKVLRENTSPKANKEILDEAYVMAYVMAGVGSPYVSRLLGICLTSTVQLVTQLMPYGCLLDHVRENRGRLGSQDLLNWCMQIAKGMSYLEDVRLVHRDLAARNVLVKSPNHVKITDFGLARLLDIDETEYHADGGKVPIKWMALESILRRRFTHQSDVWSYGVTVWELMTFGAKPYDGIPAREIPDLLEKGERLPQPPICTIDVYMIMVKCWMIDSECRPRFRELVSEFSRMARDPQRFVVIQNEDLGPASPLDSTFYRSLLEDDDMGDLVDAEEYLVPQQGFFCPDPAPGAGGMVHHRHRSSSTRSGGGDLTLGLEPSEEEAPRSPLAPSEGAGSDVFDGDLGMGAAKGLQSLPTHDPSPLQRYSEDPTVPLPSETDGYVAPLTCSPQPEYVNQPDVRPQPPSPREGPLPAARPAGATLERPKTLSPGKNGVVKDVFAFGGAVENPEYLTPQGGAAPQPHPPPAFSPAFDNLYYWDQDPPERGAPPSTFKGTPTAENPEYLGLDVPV
From the text: A compound's ability in selectively inhibiting Her2 exon 20 YVMA insertion mutations can be assessed using Ba/F3 cells, a murine pro-B cell line, which have been transduced with Her2 Exon20 YVMA insertions. An expression vector, pLVX-IRES puro (Clontech) coding for […] (A775_G776ins YVMA), was transfected into HEK293 cells by the Trans-Lentiviral ORF Packaging System (Thermo Scientific), to produce virus encoding EGFR exon 20 insertions. Ba/F3 (DSMZ) cells maintained in RPMI 1640 medium supplemented with 10% fetal bovine serum, 200 μM L-glutamine/200 μg/mL penicillin/200 μg/mL streptomycin (Life Technology) and 10 ng/mL IL-3 (R&D system), were infected by EGFR Exon20 virus and subsequently selected by puromycin (Life Technology) selection and IL-3 depletion. Ba/F3 cells expressing Her2 Exon20 YVMA insertions (named Ba/F3-Her2 Exon20 YVMA) can proliferate in the absence of IL-3. The anti-proliferative activity of compounds was determined as follows: BaF3-Her2 Exon20 YVMA cells seeded in 96 well plates (2500 cells/well) were treated with test compound (dissolved in DMSO) at a series of concentrations (4-fold dilution, top concentration: 10,000 nM). The plates were incubated for 72 h in a 37° C. incubator with 5% CO2, and the number of viable cells in each well were measured indirectly by CellTiter 96@ Aqueous One Solution Cell Proliferation Assay (Promega; this assay is a colorimetric method for determining the number of viable cells through measurement of their metabolic activity by detection of enzymatic conversion of tetrazolium salts into blue formazan derivatives). Reagent (20 μL) was added into each well, and the plates were returned to the incubator for 2 h. The absorbance in each well was then measured at 490 nm using an Envision plate reader (Perkin Elmer).

Compound	IC50 [1] [nM]	IC50 [2] [nM]	EGFR exon 19 deletion and exon 20 T790M mutation IC50 [3]	IC50 [4] [nM]
C=CC(=O)Nc1cc(Nc2ncc(Cl)c(-c3nn4c5c(cccc35)OCC4)n2)c(OC)cc1N(C)CCN(C)C [Example 57, N-(5-((5-chloro-4-(2,3-dihydro-[1,4]oxazino[2,3,4-hi]indazol-6-yl)pyrimidin-2-yl)amino)-2-((2-(dimethylamino)ethyl)(methyl)amino)-4-methoxyphenyl)acrylamide]	< 100	< 100	A (IC50 value for the indicated mutant below about 100 nM)	100 to 500
C=CC(=O)Nc1cc(Nc2ncc(N(C)CCO)c(-c3cn4c5c(cccc35)CCC4)n2)c(OC)cc1N(C)CCN(C)C [Example 60, N-(5-((4-(5,6-dihydro-4H-pyrrolo[3,2,1-ij]quinolin-1-yl)-5-((2-hydroxyethyl)(methyl)amino)pyrimidin-2-yl)amino)-2-((2-(dimethylamino)ethyl)-(methyl)amino)-4-methoxyphenyl)acrylamide]	< 100	< 100	A (IC50 value for the indicated mutant below about 100 nM)	100 to 500
C=CC(=O)Nc1cc(Nc2ncc(Cl)c(-c3cn4c5c(cccc35)OCC4)n2)c(OC)cc1N(C)CC1CCCN1C (stereo not drawn) [Example 8, N-(5-((5-chloro-4-(2,3-dihydro-[1,4]oxazino[2,3,4-hi]indol-6-yl)pyrimidin-2-yl)amino)-4-methoxy-2-(methyl((1-methylpyrrolidin-2-yl)methyl)amino)phenyl)acrylamide]	< 100	< 100	A (IC50 value for the indicated mutant below about 100 nM)	100 to 500
C=CC(=O)Nc1cc(Nc2ncc(-c3ccnn3C)c(-c3cn4c5c(cccc35)CCC4)n2)c(OC)cc1N(C)CCN(C)C [Example 53, N-(5-((4-(5,6-dihydro-4H-pyrrolo[3,2,1-ij]quinolin-1-yl)-5-(1-methyl-1H-pyrazol-5-yl)pyrimidin-2-yl)amino)-2-((2-(dimethylamino)ethyl)(methyl)amino)-4-methoxyphenyl)acrylamide]	< 100	< 100	A (IC50 value for the indicated mutant below about 100 nM)	< 100
C=CC(=O)Nc1cc(Nc2ncc(OCC(F)F)c(-c3cn4c5c(cccc35)CCC4)n2)c(OC)cc1N(C)CCN(C)C [Example 95]	< 100	< 100	A (IC50 value for the indicated mutant below about 100 nM)	100 to 500
C=CC(=O)Nc1cc(Nc2ncc(CCCOC)c(-c3cn4c5c(cccc35)CCC4)n2)c(OC)cc1N(C)CCN(C)C [Example 33, N-(5-((4-(5,6-dihydro-4H-pyrrolo[3,2,1-ij]quinolin-1-yl)-5-(3-methoxypropyl)pyrimidin-2-yl)amino)-2-((2-(dimethylamino)ethyl)(methyl)amino)-4-methoxyphenyl)acrylamide]	< 100	< 100	A (IC50 value for the indicated mutant below about 100 nM)	< 100
C=CC(=O)Nc1cc(Nc2ncc(N(C)S(C)(=O)=O)c(-c3cn4c5c(cccc35)CCC4)n2)c(OC)cc1N(C)CCN(C)C [Example 59, N-(5-((4-(5,6-dihydro-4H-pyrrolo[3,2,1-ij]quinolin-1-yl)-5-(N-methylmethylsulfonamido)pyrimidin-2-yl)amino)-2-((2-(dimethylamino)ethyl)(methyl)amino)-4-methoxyphenyl)acrylamide]	> 1000	> 1000	D (IC50 value for the indicated mutant greater than about 1 μM)	> 1000
C=CC(=O)Nc1cc(Nc2ncc(Cl)c(-c3cn4c5c(cccc35)OCC4)n2)c(OC)cc1N(C)C1CCN(C)C1 (stereo not drawn) [Example 9, N-(5-((5-chloro-4-(2,3-dihydro-[1,4]oxazino[2,3,4-hi]indol-6-yl)pyrimidin-2-yl)amino)-4-methoxy-2-(methyl(1-methylpyrrolidin-3-yl)amino)phenyl)acrylamide]	< 100	100 to 500	A (IC50 value for the indicated mutant below about 100 nM)	500 to 1000
C=CC(=O)Nc1cc(Nc2ncc(C(=O)OC(C)C)c(-c3cn4c5c(cccc35)CCC4)n2)c(OC)cc1N(C)CCN(C)C [Example 103]	< 100	< 100	A (IC50 value for the indicated mutant below about 100 nM)	< 100
C=CC(=O)Nc1cc(Nc2ncc(Cl)c(-c3cn4c5c(cccc35)CCC4)n2)c(CC)cc1N(C)CCN(C)C [Example 18, N-(5-((5-chloro-4-(5,6-dihydro-4H-pyrrolo[3,2,1-ij]quinolin-1-yl)pyrimidin-2-yl)amino)-2-((2-(dimethylamino)ethyl)(methyl)amino)-4-ethylphenyl)acrylamide]	< 100	< 100	A (IC50 value for the indicated mutant below about 100 nM)	100 to 500
C=CC(=O)Nc1cc(Nc2ncc(SCCO)c(-c3cn4c5c(cccc35)CCC4)n2)c(OC)cc1N(C)CCN(C)C [Example 58, N-(5-((4-(5,6-dihydro-4H-pyrrolo[3,2,1-ij]quinolin-1-yl)-5-((2-hydroxyethyl)thio)pyrimidin-2-yl)amino)-2-((2-(dimethylamino)ethyl)(methyl)amino)-4-methoxyphenyl)acrylamide]	< 100	< 100	A (IC50 value for the indicated mutant below about 100 nM)	100 to 500
C=CC(=O)Nc1cc(Nc2nccc(-c3c(N4CC[C@@H](O)C4)n4c5c(cccc35)CCC4)n2)c(OC)cc1N(C)CCN(C)C [Example 74, (R)-N-(2-((2-(dimethylamino)ethyl)-(methyl)amino)-5-((4-(2-(3-hydroxypyrrolidin-1-yl)-5,6-dihydro-4H-pyrrolo[3,2,1-ij]quinolin-1-yl)pyrimidin-2-yl)amino)-4-methoxyphenyl)-acrylamide]	< 100	< 100	A (IC50 value for the indicated mutant below about 100 nM)	100 to 500
